Data as given in patent EP1090017B1, “NOVEL COMPOUNDS DERIVED FROM ALPHA-D-XYLOSE, PREPARATION METHOD AND THERAPEUTIC USE” (FOURNIER INDUSTRIE ET SANTE, priority 1998, dated 1999).

Key:
cholestérol sérique = assay: Serum cholesterol (area under curve) measured periodically during the 14-week apoE-deficient mouse trial; type: in vivo, souris; conditions: for AUC (aire sous courbe du cholestérol): whole 14 weeks of the trial
Description: (§1) L'activité antiathéromateuse des composés selon l'invention a été mise en évidence sur des souris femelles, déficientes en apolipoprotéine E (homozygotes). Selon le protocole de ce test, le produit à évaluer est administré dans la nourriture (régime alimentaire standard) pendant 14 semaines. Après ce laps de temps, les souris sont euthanasiées et le coeur et la crosse aortique sont prélevés. Les surfaces lésées sont évaluées selon la méthode décrite dans Arteriosclerosis, 1990, 10, p. 316-323.
Durant les 14 semaines de l'essai décrit ci-dessus dans le but d'évaluer les propriétés antiathéromateuses des composés, on a mesuré périodiquement le taux de cholestérol sérique des souris traitées et des souris témoins, et le résultat est exprimé sous la forme aire sous courbe (AUC) du cholestérol pendant toute la durée de l'essai. Les résultats obtenus avec le composé de l'exemple 2 sont reportés dans le tableau II où AUC représente l'aire sous courbe (exprimée en g.jour.1^-1) et la variation (en pourcentage) est appréciée par rapport au groupe témoin. Tableau II

[1] = system: souris femelles, déficientes en apolipoprotéine E (homozygotes); assay: Antiatheromatous activity in apolipoprotein E-deficient mice: lesion surface after 14 weeks of compound in the food; type: in vivo; conditions: 300 mg/kg in the food, versus untreated control mice
Description: as §1
Le tableau I présente les résultats obtenus selon ce test pratiqué avec le composé de l'exemple 2 à différentes doses. Les résultats sont exprimés en pourcentage de réduction de la surface des plaques d'athérome, par rapport à un groupe de souris témoin non traitées. Tableau I

Row | Compound | variation (%) de l'AUC du cholestérol (cholestérol sérique; 10 mg/kg, versus control group) [%] | AUC (aire sous courbe du cholestérol) (cholestérol sérique; 10 mg/kg) [g.jour.1^-1] | AUC (aire sous courbe du cholestérol) (cholestérol sérique; 100 mg/kg) [g.jour.1^-1] | AUC (aire sous courbe du cholestérol) (cholestérol sérique; 300 mg/kg) [g.jour.1^-1] | Réduction (%) de la surface des plaques d'athérome [1] [%]
1 | N#Cc1ccc(C(=O)c2ccc(S[C@H]3SC[C@@H](O)[C@H](O)[C@H]3O)cc2)cc1 [Exemple 2, [4-(4-cyanobenzoyl)phényl] 1,5-dithio-α-D-xylopyranoside] | 0 | 585 ± 15 | 507 ± 16 | 505 ± 20 | –
2 | N#Cc1ccc(C(=O)c2ccc(S[C@@H]3SC[C@@H](O)[C@H](O)[C@H]3O)cc2)cc1 [[4-(4-cyanobenzoyl)phényl] 1,5-dithio-β-D-xylopyranoside] | – | – | – | – | 30
